Data from patent US10633383B2, “Compounds for the treatment, alleviation or prevention of disorders associated with Tau aggregates” (AC Immune SA, priority 2018, dated 2020).

Experiments:
Format in all cases: in vivo, mouse
rTg4510 mice [1] = experiment: Total human Tau in CSF of rTg4510 mice (AlphaLISA); settings: 30 mg/kg bi-daily by gavage for 1 month, vs vehicle treated rTg4510 mice (FIG. 1)
Text: (§1) In Vivo Efficacy of the Compounds of the Present Invention In Vivo Study Design for the Testing of Example 12 and Example 45
(§2) Double transgenic rTg4510 mice express the full-length human Tau carrying the P301L mutation (Tau4R0N-P301L) under the control of the tet-inducible CaMKII promoter (Ramsden et al., J. Neurosci., 2005⋅25(46):10637-10647). Single transgenic mice expressing only the tetracycline-controlled transactivator (tTA) were used as genotype controls. The study comprised 4 treatment groups (n=15 female for tTa group and n=11 female mice/group for the treatment) with the following group distribution (see Table 9). […]
Mice were deeply anesthetized by standard injectable anesthesia and transcardially perfused with cold PBS. […] Total human Tau in CSF Tau was quantified using the following antibody pairs: HT7-Acceptor beads+biotin (BT)-Tau13-donor beads. […]
After incubation of this mixture at room temperature for 1 hour, 25 μL of Streptavidin Donor beads (Perkin Elmer) at 25 μg/mL were added in the dark. Plates were analyzed after 30 minute incubation using the EnSpire Alpha instrument and EnSpire Workstation version 3.00. Data were analyzed by 1-way ANOVA followed by post-hoc comparisons and shown statistics refers to differences compared to vehicle treated rTg4510 mice.

rTg4510 mice [2] = experiment: Histology for neuroinflammation markers (Iba1, CD68) in rTg4510 mice
Text: as §1
as §2, with “9). Compounds or vehicle control were administered once daily or bi-daily by gavage for 1 month starting at the age of 5 months. All mice received 200 ppm doxycycline in chow for 3 weeks plus a loading dose in drinking water for the first two days at 1.5 mg/mL in 4% sucrose.” for “9).”
After perfusion, brains were then removed and hemi-sagitally hemisected. […] A systematic random set of sections from seven sagittal levels per animal was used to quantify the Iba1 and CD68 immunoreactivity while 1 section/animal from the medio-lateral level 4 were used to assess Tau misfolding (MC1 monoclonal antibody). […] Sections were imaged using a digital slide scanner (Panoramic 250 Flash, 3D Histech Ltd.) and quantified using the image visualization software Visiopharm. […]

rTg4510 mice [3] = experiment: Histology for misfolded Tau (MC1) in rTg4510 mice; settings: 30 mg/kg bi-daily by gavage for 1 month, frontal cortex (FIG. 2)
Text: as §1, §2
After perfusion, brains were then removed and hemi-sagitally hemisected. […] A systematic random set of sections from seven sagittal levels per animal was used to quantify the Iba1 and CD68 immunoreactivity while 1 section/animal from the medio-lateral level 4 were used to assess Tau misfolding (MC1 monoclonal antibody). […] Sections were imaged using a digital slide scanner (Panoramic 250 Flash, 3D Histech Ltd.) and quantified using the image visualization software Visiopharm.
MC1 staining was analyzed in the frontal cortex in the upper cortical layers. […] This ROI was analyzed in Visiopharm using a predetermined threshold for MC1 staining with a pixel intensity threshold above 30 (8 bits pictures) and excluding all detected objects smaller than 20 μm^2. […]

With `Fc1ccc2[nH]c3c(c2c1)CN(c1ccc2nc(N4CCOCC4)oc2c1)CC3` [Example 12] the “Tau levels in CSF” value (rTg4510 mice [1]) was “decreased Tau levels in CSF”, the “microgliosis measured as Iba1 immunoreactive area” value (rTg4510 mice [2]; 30 mg/kg bi-daily by gavage for 1 month (FIG. 3A)) was “decreased microgliosis” and the “activated phagocytic microglial cells positive for CD68” value (rTg4510 mice [2]; 30 mg/kg bi-daily by gavage for 1 month (FIG. 3B)) was “decreased highy activated phagocytic migroglial cells”. For the same compound, the “MC1 positive area (misfolded Tau)” value (rTg4510 mice [3]) was “decreased the MC1 positive area”.
